Data from PubChem BioAssay AID686962 (Sanford-Burnham Center for Chemical Genomics, 2013).
Active and inactive are the calls of the source.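 Rule for the calls: active = IC50 at or below 20 µM in the dose response confirmation; inactive = the rest.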

The compounds below were run against Low molecular weight phosphotyrosine protein phosphatase (Homo sapiens) (UniProt P24666) (assay: inhibition of human LMPTP-A enzyme – biochemical, fluorescence intensity, SAR follow-up (AID 686962)). Conditions: recombinant LMPTP-A, OMFP fluorogenic substrate, 50 min.
Sequence of Low molecular weight phosphotyrosine protein phosphatase (Homo sapiens) (P24666 whole entry, looked up): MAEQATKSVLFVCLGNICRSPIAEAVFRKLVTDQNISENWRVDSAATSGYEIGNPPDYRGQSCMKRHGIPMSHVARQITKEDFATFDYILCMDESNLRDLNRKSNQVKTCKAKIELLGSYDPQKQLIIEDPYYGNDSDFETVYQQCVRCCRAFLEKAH

Compound | IC50
c1ccc(-c2nc(NCc3cccnc3)c3ccccc3n2)cc1 | 19 µM
Nc1nc(N)c(Cc2ccc(Cl)cc2Cl)c(N)n1 | 11.5 µM
COc1ccccc1CNc1ncnc2ccsc12 | > 80 µM (inactive)
Clc1cccc(Cl)c1Cn1cnc(=NCc2ccco2)c2[nH]cnc21 | 10.2 µM
O=C(OCCNc1nc(-c2ccccc2)nc2ccccc12)c1ccncc1 | inactive
c1ccc(-c2nc(NCCCn3ccnc3)c3ccccc3n2)cc1 | 17.8 µM
CC(C)OCCCNc1nc(-c2ccccc2)nc2ccccc12 | 18.1 µM
Fc1ccccc1-c1nc(NCCCN2CCOCC2)c2ccccc2n1 | inactive
O=C(OCCNc1nc(-c2ccccc2)nc2ccccc12)c1cccnc1 | inactive
Cc1cccc(-c2nc(NCCCN3CCOCC3)c3ccccc3n2)c1 | 13.5 µM
Cc1c(CCC(=O)O)c(=O)oc2c(C)c(OCc3ccccc3Cl)ccc12 | 7.41 µM
Cc1ccc(-c2nc(NCCN3CCOCC3)c3ccccc3n2)cc1 | 18.8 µM
c1ccc(-c2cc(NCCN3CCCCC3)c3ccccc3n2)cc1 | 2.86 µM
Fc1ccccc1-c1nc(NC2CCCC2)c2ccccc2n1 | 10.6 µM
c1ccc(-c2cc(N3CCCCC3)c3ccccc3n2)cc1 | 11.1 µM
Cc1ccc(-c2nc(NCc3cccnc3)c3ccccc3n2)cc1 | 12.9 µM
CCc1nc(N)nc(N)c1-c1ccc(Cl)cc1 | 14.7 µM
